Test results reported in patent US20190330529A1, “USE AND COMPOSITION OF BUFFER FORMULATION WITH MULTIPLE PH VALUES AND UREASE ACTIVITY INHIBITOR” (ECO-GEO BIO-TECHNOLOGY COMPANY LIMITED, priority 2018, published 2019).

Assays:
[1] = target: T1, urease (U7752, Sigma-Aldrich) (Canavalia ensiformis, UniProt P07374); assay: Inhibition of the activity of the urease in citric acid salt buffer solution (Berthelot, absorbance 625 nm); format: biochemical
T1 construct: purchased Sigma-Aldrich U7752
Description: (§1) 7.1 Control group: Control group: 20 μL of the buffer solution and 25 μL of 50 ppm urease were added and mixed in wells of a 96-well plate. After the mixture reacted at 37° C. for 5 minutes, 40 μL of 20 mM urea solution was added into the mixture. After the mixture reacted at 37° C. for 10 minutes, 55 μL of Berthelot reagent A and 60 μL of Berthelot reagent B were added into each well. The mixture was held in the dark at 37° C. for 30 minutes, and the absorbance was measured at 625 nm wavelength by the ELISA reader. Each sample was measured at least in triplicate.
as §1, with “7.2 Ascorbic acid groups: 10” for “7.1 Control group: Control group: 20”, “buffer solution, 10 μL of ascorbic acid” for “buffer”, “mixture to make the final concentrations of the ascorbic acid as 120 ppm, 240 ppm and 480 ppm, respectively.” for “mixture.”, “triplicate. The inhibition % of the activity of the urease=100−((the absorbance of the sample/the absorbance of the control group)×100).” for “triplicate.”
as §1, with “8.1” for “7.1”
as §1, with “8.2 Ascorbic acid groups: 10” for “7.1 Control group: Control group: 20”, “buffer solution, 10 μL of ascorbic acid” for “buffer”, “mixture to make the final concentrations of the ascorbic acid as 120 ppm, 240 ppm and 480 ppm, respectively.” for “mixture.”, “triplicate. The inhibition % of the activity of the urease=100−((the absorbance of the sample/the absorbance of the control group)×100).” for “triplicate.”
as §1, with “9.1” for “7.1”
as §1, with “9.2 Ascorbic acid groups: 10” for “7.1 Control group: Control group: 20”, “buffer solution, 10 μL of ascorbic acid” for “buffer”, “mixture to make the final concentrations of the ascorbic acid as 120 ppm, 240 ppm and 480 ppm, respectively.” for “mixture.”, “Each sample was measured at least in triplicate.” left out

[2] = target: T1, urease (U7752, Sigma-Aldrich); assay: Inhibition of the activity of the urease in phosphate buffer solution (Berthelot, absorbance 625 nm); format: biochemical
Description: 1. Experiment of the Inhibition of the Activity of the Urease (in Phosphate Buffer Solution, pH 5.0)
1.1 Control group: 20 μL of the buffer solution and 25 μL of 50 ppm urease (U7752, Sigma-Aldrich) were added and mixed in wells of a 96-well plate. After the mixture reacted at 37° C. for 5 minutes, 40 μL of 20 mM urea solution was added into the mixture. After the mixture reacted at 37° C. for 10 minutes, 55 μL of Berthelot reagent A (prepared by mixing 5 g of phenol and 25 mg of sodium nitroprusside and diluting the mixture to 500 mL with purified water) and 60 μL of Berthelot reagent B (prepared by mixing 2.5 g of sodium hydroxide and 4.2 mL of sodium hypochlorite and diluting the mixture to 500 mL with purified water) were added into each well. The mixture was held in the dark at 37° C. for 30 minutes, and the absorbance was measured at 625 nm wavelength by an enzyme-linked immuno-sorbent assay (ELISA) reader. Each sample was measured at least in triplicate.
as §1, with “1.2 Ascorbic acid groups: 10” for “7.1 Control group: Control group: 20”, “buffer solution, 10 μL of ascorbic acid” for “buffer”, “mixture to make the final concentrations of the ascorbic acid as 120 ppm, 240 ppm and 480 ppm, respectively.” for “mixture.”, “triplicate. The inhibition % of the activity of the urease=100−((the absorbance of the sample/the absorbance of the control group)×100).” for “triplicate.”
2. Experiment of the Inhibition of the Activity of the Urease (in Phosphate Buffer Solution, pH 6.0)
as §1, with “2.1” for “7.1 Control group:”
as §1, with “2.2 Ascorbic acid groups: 10” for “7.1 Control group: Control group: 20”, “buffer solution, 10 μL of ascorbic acid” for “buffer”, “mixture to make the final concentrations of the ascorbic acid as 120 ppm, 240 ppm and 480 ppm, respectively.” for “mixture.”, “triplicate. The inhibition % of the activity of the urease=100−((the absorbance of the sample/the absorbance of the control group)×100).” for “triplicate.”
3. Experiment of the Inhibition of the Activity of the Urease (in Phosphate Buffer Solution, pH 6.8)
as §1, with “3.1” for “7.1 Control group:”, “triplicate. […]” for “triplicate.”

[3] = pH 5, read-out: inhibition % of the activity of the urease
[4] = pH 6, read-out: inhibition % of the activity of the urease
[5] = pH 6.8, read-out: inhibition % of the activity of the urease
[6] = pH 7, read-out: inhibition % of the activity of the urease
[7] = pH 7.3, read-out: inhibition % of the activity of the urease
[8] = pH 8, read-out: inhibition % of the activity of the urease

T1 sequence (P07374 whole entry, looked up): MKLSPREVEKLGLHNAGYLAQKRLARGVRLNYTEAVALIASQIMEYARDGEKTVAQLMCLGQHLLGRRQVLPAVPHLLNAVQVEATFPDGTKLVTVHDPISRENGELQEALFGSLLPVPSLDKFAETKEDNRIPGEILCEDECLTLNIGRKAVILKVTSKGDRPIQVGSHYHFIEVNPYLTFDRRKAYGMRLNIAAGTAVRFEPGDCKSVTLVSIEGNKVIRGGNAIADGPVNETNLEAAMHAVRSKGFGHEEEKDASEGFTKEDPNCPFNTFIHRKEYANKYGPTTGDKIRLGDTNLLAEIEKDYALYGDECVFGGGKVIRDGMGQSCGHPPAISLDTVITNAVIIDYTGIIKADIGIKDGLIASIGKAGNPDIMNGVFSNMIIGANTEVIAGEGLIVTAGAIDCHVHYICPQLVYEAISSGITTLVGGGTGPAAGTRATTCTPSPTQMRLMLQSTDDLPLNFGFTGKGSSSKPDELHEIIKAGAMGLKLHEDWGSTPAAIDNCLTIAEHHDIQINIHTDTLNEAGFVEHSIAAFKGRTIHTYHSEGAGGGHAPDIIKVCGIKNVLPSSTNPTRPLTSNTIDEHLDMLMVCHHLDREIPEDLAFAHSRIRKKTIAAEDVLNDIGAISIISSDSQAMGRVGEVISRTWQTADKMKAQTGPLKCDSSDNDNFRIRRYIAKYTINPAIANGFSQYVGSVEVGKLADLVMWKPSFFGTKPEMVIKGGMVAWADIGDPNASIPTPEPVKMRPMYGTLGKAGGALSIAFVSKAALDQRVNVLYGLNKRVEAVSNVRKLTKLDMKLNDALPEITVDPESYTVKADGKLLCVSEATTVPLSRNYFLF

## O=C1O[C@H]([C@@H](O)CO)C(O)=C1O [ascorbic acid]
[1]; pH 6.8, read-out: inhibition % of the activity of the urease, 120 ppm ascorbic acid, citrate buffer solution, pH 6.8
  inhibition at 120 ppm: -6.8%
[1]; pH 6.8, read-out: inhibition % of the activity of the urease, 240 ppm ascorbic acid, citrate buffer solution, pH 6.8
  inhibition at 240 ppm: 66%
[1]; pH 6.8, read-out: inhibition % of the activity of the urease, 480 ppm ascorbic acid, citrate buffer solution, pH 6.8
  inhibition at 480 ppm: 93.5%
[1]; pH 6.8, read-out: inhibition of the urea hydrolysis, 480 ppm ascorbic acid, citrate buffer solution, pH 6.8-7.0
  inhibition at 480 ppm: > 90%
[1]; pH 6.8, read-out: inhibition of the urea hydrolysis, 480 ppm ascorbic acid, citrate buffer solution, pH 6.8-7.3
  inhibition at 480 ppm: > 50%
[1]; pH 7, read-out: inhibition % of the activity of the urease, 120 ppm ascorbic acid, citrate buffer solution, pH 7.0
  inhibition at 120 ppm: -25.2%
[1]; pH 7, read-out: inhibition % of the activity of the urease, 240 ppm ascorbic acid, citrate buffer solution, pH 7.0
  inhibition at 240 ppm: 32.6%
[1]; pH 7, read-out: inhibition % of the activity of the urease, 480 ppm ascorbic acid, citrate buffer solution, pH 7.0
  inhibition at 480 ppm: 93.6%
[1]; pH 7.3, read-out: inhibition % of the activity of the urease, 120 ppm ascorbic acid, citrate buffer solution, pH 7.3
  inhibition at 120 ppm: -19.7%
[1]; pH 7.3, read-out: inhibition % of the activity of the urease, 240 ppm ascorbic acid, citrate buffer solution, pH 7.3
  inhibition at 240 ppm: 27.1%
[1]; pH 7.3, read-out: inhibition % of the activity of the urease, 480 ppm ascorbic acid, citrate buffer solution, pH 7.3
  inhibition at 480 ppm: 75.3%
[2]; environment with pH 5-8, optical density versus control group
  inhibitory effect on the urease hydrolysis (in words): has the inhibitory effect on the urease hydrolysis
[2]; environment with pH 6.8-7.3, summary statement, buffer and concentration not stated
  inhibitory effect on the urease hydrolysis: over 90%
[2]; [3]
  inhibition at 120 ppm: 25.7%
  inhibition at 240 ppm: 33.1%
  inhibition at 480 ppm: 40.5%
[2]; [4]
  inhibition at 120 ppm: 26.7%
  inhibition at 240 ppm: 49%
  inhibition at 480 ppm: 52.9%
[2]; pH 6, read-out: inhibition of the urea hydrolysis
  inhibition at 480 ppm: > 50%
[2]; [5]
  inhibition at 120 ppm: 2%
  inhibition at 240 ppm: 37.3%
  inhibition at 480 ppm: 96.5%
[2]; pH 6.8, read-out: inhibition of the urea hydrolysis
  inhibition at 480 ppm: > 93%
[2]; [6]
  inhibition at 120 ppm: 16.1%
  inhibition at 240 ppm: 59.4%
  inhibition at 480 ppm: 97.2%
[2]; [7]
  inhibition at 120 ppm: 11.3%
  inhibition at 240 ppm: 34.6%
  inhibition at 480 ppm: 93.6%
[2]; [8]
  inhibition at 120 ppm: 8.1%
  inhibition at 240 ppm: 33.3%
  inhibition at 480 ppm: 77.7%
